Read-outs that look alike come from different tables or passages of the source. Starred links: 1 amine or outer side, 2 acyl side, 3 side chain; linkers in the order of their positions; H or OH if unused. Positions of bridges follow the written chain, without caps; N, C: chain ends. Non-standard residues stand in square brackets, D forms with d. Groups on a side chain read outwards from the residue. Chains are numbered I, II in the order given. *: point of attachment. C20 diacid = O=C(O)CCCCCCCCCCCCCCCCCCC(=O)*; C18 diacid = O=C(O)CCCCCCCCCCCCCCCCC(=O)*; γGlu = O=C(O)[C@H](CCC(=O)[*:2])N[*:1]; εLys = N[C@@H](CCCCN[*:1])C(=O)[*:2]; Tle = CC(C)(C)[C@H](N)C(=O)O; AEEA = NCCOCCOCC(=O)O; Aib = CC(C)(N)C(=O)O
How the values were obtained:
Format in all cases: cell-based
Conditions in all cases: CreLuc reporter gene assay
hNPY2R = target: T1, hNPY2R (Homo sapiens, UniProt P49146); test: hNPY2R CreLuc reporter gene assay in 0.5% and 100% plasma
T1 construct: expressed in transfected cells; host or cells: HEK-293 cells carrying a CRE-luciferase reporter gene
T1 sequence (P49146 1-381): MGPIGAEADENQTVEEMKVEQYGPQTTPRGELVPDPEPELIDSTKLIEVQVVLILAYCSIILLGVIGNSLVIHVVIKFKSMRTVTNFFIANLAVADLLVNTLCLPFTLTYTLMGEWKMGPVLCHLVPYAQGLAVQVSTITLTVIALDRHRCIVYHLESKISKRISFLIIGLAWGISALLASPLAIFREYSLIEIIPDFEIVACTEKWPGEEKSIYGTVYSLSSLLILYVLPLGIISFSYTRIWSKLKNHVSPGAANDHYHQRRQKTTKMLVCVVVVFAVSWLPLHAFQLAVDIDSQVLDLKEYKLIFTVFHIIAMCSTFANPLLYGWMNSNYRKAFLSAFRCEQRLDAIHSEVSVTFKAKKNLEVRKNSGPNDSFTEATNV
Procedure, shortened: (§1)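 Agonist EC50s came from 8-concentration curves over four decades, fitted by non-linear variable-slope regression of CRE-driven luciferase luminescence. Cells were exposed 4 h at 37 °C, in buffer with 0.5% human plasma or in 100% plasma; GIPR was expressed in CHO cells, GLP-1R and NPY2R in HEK cells.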

hGLP1R = target: T2, hGLP1R (Homo sapiens, UniProt P43220); test: hGLP1R CreLuc reporter gene assay in 0.5% and 100% plasma
T2 construct: expressed in transfected cells; host or cells: HEK-293 cells carrying a CRE-luciferase reporter gene
T2 sequence (P43220 24-463): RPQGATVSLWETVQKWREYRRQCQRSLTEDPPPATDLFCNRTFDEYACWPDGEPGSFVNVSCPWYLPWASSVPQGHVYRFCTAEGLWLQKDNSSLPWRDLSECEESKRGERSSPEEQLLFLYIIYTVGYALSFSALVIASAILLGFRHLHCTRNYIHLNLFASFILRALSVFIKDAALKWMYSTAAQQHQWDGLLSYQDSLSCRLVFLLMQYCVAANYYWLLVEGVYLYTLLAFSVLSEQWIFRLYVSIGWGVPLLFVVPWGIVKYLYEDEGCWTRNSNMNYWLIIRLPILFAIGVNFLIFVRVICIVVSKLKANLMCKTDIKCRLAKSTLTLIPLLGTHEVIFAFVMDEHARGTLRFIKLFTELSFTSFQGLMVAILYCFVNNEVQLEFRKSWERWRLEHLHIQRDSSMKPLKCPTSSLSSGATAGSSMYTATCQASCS
Procedure, shortened: as §1

hGIPR = target: T3, hGIPR (Homo sapiens, UniProt P48546); test: hGIPR CreLuc reporter gene assay in 0.5% and 100% plasma
T3 construct: expressed in transfected cells; host or cells: CHO cells carrying a CRE-luciferase reporter gene
T3 sequence (P48546 22-466): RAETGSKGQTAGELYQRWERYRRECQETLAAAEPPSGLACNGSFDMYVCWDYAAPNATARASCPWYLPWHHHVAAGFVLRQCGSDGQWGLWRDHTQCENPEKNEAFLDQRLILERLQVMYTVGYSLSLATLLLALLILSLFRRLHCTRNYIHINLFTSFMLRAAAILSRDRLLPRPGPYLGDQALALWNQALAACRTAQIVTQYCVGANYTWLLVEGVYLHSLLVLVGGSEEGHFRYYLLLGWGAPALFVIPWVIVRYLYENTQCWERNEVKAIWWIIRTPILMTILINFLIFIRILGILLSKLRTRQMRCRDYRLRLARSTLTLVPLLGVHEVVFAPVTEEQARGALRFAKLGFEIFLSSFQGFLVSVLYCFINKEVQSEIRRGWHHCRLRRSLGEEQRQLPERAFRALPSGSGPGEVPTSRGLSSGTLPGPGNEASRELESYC
Procedure, shortened: as §1

[1] = 100% human plasma, read-out: hNPY2R 100% hP
[2] = 0.5% human plasma, read-out: hGLP1R 0.5% hP
[3] = 0.5% human plasma, read-out: hGIPR 0.5% hP
[4] = 100% human plasma, read-out: hGIPR 100% hP
[5] = 0.5% human plasma, read-out: hNPY2R 0.5% hP
[6] = 100% human plasma, read-out: hGLP1R 100% hP

Row | Substance | EC50 (hNPY2R; [1]) [nM] | EC50 (hGLP1R; [2]) [nM] | EC50 (hGIPR; [3]) [nM] | EC50 (hGIPR; [4]) [nM] | EC50 (hNPY2R; [5]) [nM] | EC50 (hGLP1R; [6]) [nM]
1 | H-Y[Aib]EGTFTSDYSI[Aib]LEKQAQ[Aib]AFVQWLIK([εLys-γGlu-γGlu-γGlu-γGlu-γGlu-γGlu-C20 diacid])GGPSSYVSLRHYYNWLTRQRY-NH2 [Compound 15, Y-Aib-E-G-T-F-T-S-D-Y-S-I-Aib-L-E-K-Q-A-Q-Aib-A-F-V-Q-W-L-I-K(1,3)-GGPSSYVSLRHYYNWLTRQRY-NH2.C20DA-gGlu-gGlu-gGlu-gGlu-gGlu-gGlu-eLys(1,2)] | 15.4 | 0.16 | 0.32 | 2.43 | – | –
2 | H-Y[Aib]EGTFTSDYSI[Aib]LDKQAQ[Aib]AFVEWLIK([εLys-γGlu-γGlu-γGlu-γGlu-γGlu-γGlu-C20 diacid])GGPSSGASLRHYYNWLTRQRY-NH2 [Compound 128, Y-Aib-E-G-T-F-T-S-D-Y-S-I-Aib-L-D-K-Q-A-Q-Aib-A-F-V-E-W-L-I-K(1,3)-GGPSSGASLRHYYNWLTRQRY-NH2.C20DA-gGlu-gGlu-gGlu-gGlu-gGlu-gGlu-eLys(1,2)] | – | 0.4 | 0.11 | – | 24.8 | –
3 | I: H-Y[Aib]EGTFTSDYSI[Aib]LEKQAQ[Aib]AFVQWLIKGGPEEGASLRHYYNWLTRQRY-NH2 / II: {C18 diacid}-EEEEE[εLys] (amide I:28-II:C) [Compound 155, Y-Aib-E-G-T-F-T-S-D-Y-S-I-Aib-L-E-K-Q-A-Q-Aib-A-F-V-Q-W-L-I-K(1,3)-GGPEEGASLRHYYNWLTRQRY-NH2.C18DA-E-E-E-E-E-eLys(1,2)] | – | 0.15 | 0.14 | 1.43 | 17 | 7.18
4 | H-Y[Aib]EGTFTSDYSI[Aib]LEKQAQ[Aib]AFVQWLIK([εLys-γGlu-γGlu-γGlu-γGlu-γGlu-C18 diacid])GGPESGASLRHYYNWLTRQRY-NH2 [Compound 60, Y-Aib-E-G-T-F-T-S-D-Y-S-I-Aib-L-E-K-Q-A-Q-Aib-A-F-V-Q-W-L-I-K(1,3)-GGPESGASLRHYYNWLTRQRY-NH2.C18DA-gGlu-gGlu-gGlu-gGlu-gGlu-eLys(1,2)] | 23.1 | 0.08 | 0.33 | 0.35 | – | 1.69
5 | H-Y[Aib]EGTFTSDYSI[Aib]LEKQAQ[Aib]AFVQWLIK([γGlu-γGlu-γGlu-γGlu-γGlu-C18 diacid])GGPSEGASLRHYYNWLTRQRY-NH2 [Compound 250, Y-Aib-E-G-T-F-T-S-D-Y-S-I-Aib-L-E-K-Q-A-Q-Aib-A-F-V-Q-W-L-I-K(1,3)-GGPSEGASLRHYYNWLTRQRY-NH2.C18DA-gGlu-gGlu-gGlu-gGlu-gGlu(1,2)] | – | 0.08 | 0.2 | 1.25 | 12.2 | –
6 | H-Y[Aib]EGTFTSDYSI[Aib]LEKAAQ[Aib]AFVEWLIK([εLys-γGlu-γGlu-γGlu-γGlu-γGlu-γGlu-C20 diacid])GGPSSGASLRHYYNWLTRQRY-NH2 [Compound 136, Y-Aib-E-G-T-F-T-S-D-Y-S-I-Aib-L-E-K-A-A-Q-Aib-A-F-V-E-W-L-I-K(1,3)-GGPSSGASLRHYYNWLTRQRY-NH2.C20DA-gGlu-gGlu-gGlu-gGlu-gGlu-gGlu-eLys(1,2)] | 64.7 | 0.32 | 0.31 | 2.03 | 15.1 | –
7 | H-Y[Aib]EGTFTSDYSI[Aib]LEKQAQ[Aib]EFVEWLIK([εLys-γGlu-γGlu-γGlu-γGlu-γGlu-C18 diacid])GGPSSGASLRHYYNWLTRQRY-NH2 [Compound 159, Y-Aib-E-G-T-F-T-S-D-Y-S-I-Aib-L-E-K-Q-A-Q-Aib-E-F-V-E-W-L-I-K(1,3)-GGPSSGASLRHYYNWLTRQRY-NH2.C18DA-gGlu-gGlu-gGlu-gGlu-gGlu-eLys(1,2)] | 34.6 | 0.19 | 0.35 | 0.91 | 13.8 | –
8 | H-Y[Aib]EGTFTSDYSI[Aib]LEKQAQ[Aib]EFVQWLIK([γGlu-γGlu-γGlu-γGlu-C20 diacid])GGPSEGASLRHYYNWLTRQRY-NH2 [Compound 194, Y-Aib-E-G-T-F-T-S-D-Y-S-I-Aib-L-E-K-Q-A-Q-Aib-E-F-V-Q-W-L-I-K(1,3)-GGPSEGASLRHYYNWLTRQRY-NH2.C20DA-gGlu-gGlu-gGlu-gGlu(1,2)] | – | 0.29 | 0.2 | 1.83 | 13.8 | 14.2
9 | H-Y[Aib]EGTFTSDYSI[Aib]LEKQAQ[Aib]AFVQWLIK([AEEA-AEEA-Glu-Glu-Glu-Glu-C18 diacid])GGPESGASLRHYYNWLTRQRY-NH2 [Compound 52, Y-Aib-E-G-T-F-T-S-D-Y-S-I-Aib-L-E-K-Q-A-Q-Aib-A-F-V-Q-W-L-I-K(1,3)-GGPESGASLRHYYNWLTRQRY-NH2.C18DA-E-E-E-E-OEG-OEG(1,2)] | – | 0.09 | 0.12 | 0.65 | 18.7 | 3.17
10 | H-Y[Aib]EGTFTSDYSI[Aib]LEKQAQ[Aib]AFVEWLIK([εLys-γGlu-γGlu-γGlu-γGlu-γGlu-γGlu-C20 diacid])GGPSSGATLRHYYNWLTRQRY-NH2 [Compound 91, Y-Aib-E-G-T-F-T-S-D-Y-S-I-Aib-L-E-K-Q-A-Q-Aib-A-F-V-E-W-L-I-K(1,3)-GGPSSGATLRHYYNWLTRQRY-NH2.C20DA-gGlu-gGlu-gGlu-gGlu-gGlu-gGlu-eLys(1,2)] | 53.1 | 0.17 | 0.21 | 1.72 | 16.2 | –
11 | H-Y[Aib]EGTFTSDYSI[Aib]LEKQAQ[Aib]AFVEWLIK([εLys-γGlu-γGlu-γGlu-γGlu-γGlu-γGlu-C20 diacid])GGPSSGASLR[Tle]YYNWLTRQRY-NH2 [Compound 119, Y-Aib-E-G-T-F-T-S-D-Y-S-I-Aib-L-E-K-Q-A-Q-Aib-A-F-V-E-W-L-I-K(1,3)-G-G-P-S-S-G-A-S-L-R-Tle-Y-Y-N-W-L-T-R-Q-R-Y-NH2.C20DA-gGlu-gGlu-gGlu-gGlu-gGlu-gGlu-eLys(1,2)] | – | 0.26 | 0.63 | – | 23.1 | –
12 | H-Y[Aib]EGTFTSDYSI[Aib]LEKQAE[Aib]AFVQWLIK([εLys-γGlu-γGlu-γGlu-γGlu-C18 diacid])GGPSEGASLRHYYNWLTRQRY-NH2 [Compound 174, Y-Aib-E-G-T-F-T-S-D-Y-S-I-Aib-L-E-K-Q-A-E-Aib-A-F-V-Q-W-L-I-K(1,3)-GGPSEGASLRHYYNWLTRQRY-NH2.C18DA-gGlu-gGlu-gGlu-gGlu-eLys(1,2)] | 39.2 | 0.22 | 0.17 | 1.26 | 11.5 | 7.71
13 | H-Y[Aib]EGTFTSDYSI[Aib]LEKQAQ[Aib]AFVQWLIK([AEEA-AEEA-γGlu-γGlu-γGlu-γGlu-C18 diacid])GGPSEGASLRHYYNWLTRQRY-NH2 [Compound 270, Y-Aib-E-G-T-F-T-S-D-Y-S-I-Aib-L-E-K-Q-A-Q-Aib-A-F-V-Q-W-L-I-K(1,3)-GGPSEGASLRHYYNWLTRQRY-NH2.C18DA-gGlu-gGlu-gGlu-gGlu-OEG-OEG(1,2)] | 21.1 | 0.07 | 0.12 | 0.71 | – | 1.69
14 | H-Y[Aib]EGTFTSDYSI[Aib]LEKQAQ[Aib]AFVQWLIK([εLys-γGlu-γGlu-γGlu-γGlu-γGlu-C20 diacid])GGPSEGASLRHYYNWLTRQRY-NH2 [Compound 242, Y-Aib-E-G-T-F-T-S-D-Y-S-I-Aib-L-E-K-Q-A-Q-Aib-A-F-V-Q-W-L-I-K(1,3)-GGPSEGASLRHYYNWLTRQRY-NH2.C20DA-gGlu-gGlu-gGlu-gGlu-gGlu-eLys(1,2)] | 28.8 | 0.13 | 0.32 | 1.72 | – | –
15 | H-Y[Aib]EGTFTSDYSI[Aib]LEEQAQ[Aib]AFVEWLIK([εLys-γGlu-γGlu-γGlu-γGlu-γGlu-γGlu-C20 diacid])GGPSSGQSLRHYYNWLTRQRY-NH2 [Compound 31, Y-Aib-E-G-T-F-T-S-D-Y-S-I-Aib-L-E-E-Q-A-Q-Aib-A-F-V-E-W-L-I-K(1,3)-GGPSSGQSLRHYYNWLTRQRY-NH2.C20DA-gGlu-gGlu-gGlu-gGlu-gGlu-gGlu-eLys(1,2)] | – | 0.06 | 0.15 | – | 13.4 | –

Reference: US20240247080A1, “GLP1/GIP/NPY2 RECEPTOR TRIPLE AGONISTS” (Boehringer Ingelheim International GmbH, priority 2022, published 2024)
